Assay results taken from patent publication US7977326B2, “Supportive treatment of liver disease” (priority 2004, dated 2011).
Like-named read-outs stand apart in the source and are kept apart here.

How the values were obtained:
[1] = tested on: piglet hepatic microsomal membranes; experiment: Parallel studies using H2O2 as a free radical generator; type: biochemical
[2] = tested on: piglet hepatic microsomal membranes; experiment: DCF activity in AAPH induced free radical release in microsomes (lipid peroxidation); type: biochemical; design: DCF activity in AAPH induced free radical release: unit not given here; settings: for inhibition of membrane oxidation (reduction in DCF activity): 0-1000 μM, AAPH; for DCF activity in AAPH induced free radical release: one hour at 37° C. then one hour AAPH
Protocol: The protective effect of diltiazem on cell membranes was examined in piglet hepatic microsomal membranes obtained from the livers of 3-week-old female piglets. […] Following incubation the microsomal mixture was centrifuged at 2000 rpm to remove excess AAPH and diltiazem. The extent of reactive oxygen species mediated lipid peroxidation in the microsomal membranes was then measured employing the fluorescence market dichlorofluoresen (DCF, 10μ for 15 min). Image analysis.

[3] = tested on: microvascular blood flow within the liver; settings: in vivo; cited from earlier work
[4] = tested on: Hepatic liver microsomes; settings: for Fluorescence Activity: 1 mM AAPH, n=6
Protocol: Hepatic liver microsomes were obtained from 4 healthy piglets as described previously. Microsomes were stored at −80° C. until required for study. Concentration of microsomes was 1 mg/ml. Diltiazem concentrations were 50 and 500 μM, Thiamine concentrations tested included 10, 50, and 100 μM. Free radical generator AAPH was 1 mM. The study detected hepatic lipid peroxidation products by analyzing the fluorescence activity of the dye DCFH by a plate reader as described in our previous report.
DCF-DA was treated with 2M NaOH and MeOH for 2 hours and after which time it was neutralized with HCl to yield the intracellular form of DCFH as described by the manufacturer. Hepatic microsomes were diluted to 1 mg/ml using Phosphate Buffered Saline (PBS). Microsomes were incubated with various concentrations of diltiazem, thiamine or in combination at 37° C. for 1 hour. Control microsomes were incubated with PBS (no drug treatment). Microsomal mixture was then incubated with 1 mM AAPH for 1 hour to initiate free radical induced lipid peroxidation for 1 hour at 37° C. Following incubation, the microsomal mixture was centrifuged at 2000 rpm using 5000 MWCO ultracentrifuge tubes and the procedure repeated twice with PBS to remove any AAPH and drug. Lipid peroxidized microsomes were incubated with 10 μM DCFH for 15 minutes and fluorescence activity recorded using a fluorescence plate reader.

[5] = tested on: patients with Hepatitis B; settings: cited from earlier work

## COc1ccc([C@@H]2Sc3ccccc3N(CCN(C)C)C(=O)[C@@H]2OC(C)=O)cc1 (relative stereo) [Diltiazem, cis-(+)-3-(acetyloxy)-5-[2-(dimethylamino)ethyl]-2,3-dihydro-2-(4-methoxyphenyl)-1,5-benzothiazepin-4(5H)-one]
[1]
  protection against H2O2 as free radical generator: not protective
[2]
  inhibition of membrane oxidation (reduction in DCF activity): dose-dependent inhibition of membrane oxidation
[2]; 5 μM
  DCF activity in AAPH induced free radical release: 44501
[2]; 50 μM
  DCF activity in AAPH induced free radical release: 38293
[2]; 250 μM
  DCF activity in AAPH induced free radical release: 35148
[2]; 500 μM
  DCF activity in AAPH induced free radical release: 31498
[2]; 1000 μM
  DCF activity in AAPH induced free radical release: 27258
[3]
  effect on microvascular blood flow within the liver: no effect
[4]; Diltiazem 50 μM
  Fluorescence Activity: 36492
[4]; Diltiazem 500 μM
  Fluorescence Activity: 32271

## COc1ccc([C@H]2Sc3ccccc3N(CCN(C)C)C(=O)[C@H]2OC(C)=O)cc1 [L-diltiazem]
[2]
  inhibition of membrane oxidation (reduction in DCF activity): not
[2]; 5 μM
  DCF activity in AAPH induced free radical release: 52799
[2]; 50 μM
  DCF activity in AAPH induced free radical release: 49949
[2]; 250 μM
  DCF activity in AAPH induced free radical release: 51120
[2]; 500 μM
  DCF activity in AAPH induced free radical release: 53182
[2]; 1000 μM
  DCF activity in AAPH induced free radical release: 49937

## Cc1ncc(C[n+]2csc(CCO)c2C)c(N)n1 [Thiamine, thiamine]
[5]
  effect on liver function: improve liver function
[4]; Thiamine 10 μM
  Fluorescence Activity: 31113
[4]; Thiamine 50 μM
  Fluorescence Activity: 27265
[4]; Thiamine 100 μM
  Fluorescence Activity: 23477
[4]; thiamine added to microsomes
  effect on fluorescence activity (free radical release), in words: reduced the fluorescence activity
